Experimental data taken from ChEMBL document CHEMBL3217560, “Synthesis and binding affinities for sst receptors of cyclic peptoid SRIF-mimetics” (Medchemcomm, 2012).
pKi: −log10 of the molar value. Positions of bridges follow the written chain, without caps; N, C: chain ends. Non-standard residues stand in square brackets, D forms with d. Residues, ends and D or L forms follow the SMILES beside them. *: point of attachment. Threoninol(2S,3R) = C[C@@H](O)[C@H](CO)N*

Key:
[1] = target: Somatostatin receptor type 1 (Homo sapiens, UniProt P30872); assay: Displacement of [125I]-somatostatin from human sst1 receptor after 2 hrs by beta scintillation counting analysis
[2] = target: Somatostatin receptor type 2 (Homo sapiens, UniProt P30874); assay: Displacement of [125I]-somatostatin from human sst2a receptor after 2 hrs by beta scintillation counting analysis
[3] = target: Somatostatin receptor type 3 (Homo sapiens, UniProt P32745); assay: Displacement of [125I]-somatostatin from human sst3 receptor after 2 hrs by beta scintillation counting analysis
[4] = target: Somatostatin receptor type 4 (Homo sapiens, UniProt P31391); assay: Displacement of [125I]-somatostatin from human sst4 receptor after 2 hrs by beta scintillation counting analysis
[5] = target: Somatostatin receptor type 5 (Homo sapiens, UniProt P35346); assay: Displacement of [125I]-somatostatin from human sst5 receptor after 2 hrs by beta scintillation counting analysis
[6] = species: Homo sapiens; assay: Selectivity ratio of Ki for human sst1 receptor to Ki for human sst4 receptor
[7] = species: Homo sapiens; assay: Selectivity ratio of Ki for human sst2a receptor to Ki or human sst4 receptor

Sequence of Somatostatin receptor type 1 (P30872 whole entry): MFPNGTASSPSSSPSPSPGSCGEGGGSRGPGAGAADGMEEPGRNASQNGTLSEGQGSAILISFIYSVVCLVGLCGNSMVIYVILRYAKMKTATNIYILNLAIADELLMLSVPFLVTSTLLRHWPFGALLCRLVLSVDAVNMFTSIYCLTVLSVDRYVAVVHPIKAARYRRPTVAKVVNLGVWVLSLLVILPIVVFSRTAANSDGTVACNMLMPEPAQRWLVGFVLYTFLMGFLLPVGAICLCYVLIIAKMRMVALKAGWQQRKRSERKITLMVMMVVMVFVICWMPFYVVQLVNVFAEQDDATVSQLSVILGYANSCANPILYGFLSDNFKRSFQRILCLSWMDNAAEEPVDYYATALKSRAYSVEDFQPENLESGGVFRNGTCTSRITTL
Sequence of Somatostatin receptor type 5 (P35346 whole entry): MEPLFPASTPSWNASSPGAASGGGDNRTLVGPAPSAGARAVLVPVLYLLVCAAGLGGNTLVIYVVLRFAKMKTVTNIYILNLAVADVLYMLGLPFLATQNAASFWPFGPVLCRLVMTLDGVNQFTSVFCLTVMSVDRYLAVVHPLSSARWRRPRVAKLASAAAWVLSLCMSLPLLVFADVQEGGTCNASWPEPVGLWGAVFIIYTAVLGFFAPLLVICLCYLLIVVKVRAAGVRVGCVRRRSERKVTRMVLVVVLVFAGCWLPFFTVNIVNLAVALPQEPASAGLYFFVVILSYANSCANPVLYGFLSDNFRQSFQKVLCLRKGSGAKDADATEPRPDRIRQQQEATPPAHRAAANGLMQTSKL
Sequence of Somatostatin receptor type 3 (P32745 whole entry): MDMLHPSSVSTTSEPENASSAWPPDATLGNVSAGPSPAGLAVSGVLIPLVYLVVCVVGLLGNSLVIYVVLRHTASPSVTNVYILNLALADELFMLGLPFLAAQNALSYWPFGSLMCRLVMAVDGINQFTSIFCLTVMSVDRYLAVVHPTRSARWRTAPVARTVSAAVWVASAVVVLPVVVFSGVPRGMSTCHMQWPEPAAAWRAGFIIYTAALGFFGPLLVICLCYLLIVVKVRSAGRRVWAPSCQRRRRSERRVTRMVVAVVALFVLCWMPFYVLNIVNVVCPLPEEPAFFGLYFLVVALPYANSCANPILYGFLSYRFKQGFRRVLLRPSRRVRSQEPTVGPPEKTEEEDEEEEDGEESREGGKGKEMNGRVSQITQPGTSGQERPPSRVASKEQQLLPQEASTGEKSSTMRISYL
Sequence of Somatostatin receptor type 2 (P30874 whole entry): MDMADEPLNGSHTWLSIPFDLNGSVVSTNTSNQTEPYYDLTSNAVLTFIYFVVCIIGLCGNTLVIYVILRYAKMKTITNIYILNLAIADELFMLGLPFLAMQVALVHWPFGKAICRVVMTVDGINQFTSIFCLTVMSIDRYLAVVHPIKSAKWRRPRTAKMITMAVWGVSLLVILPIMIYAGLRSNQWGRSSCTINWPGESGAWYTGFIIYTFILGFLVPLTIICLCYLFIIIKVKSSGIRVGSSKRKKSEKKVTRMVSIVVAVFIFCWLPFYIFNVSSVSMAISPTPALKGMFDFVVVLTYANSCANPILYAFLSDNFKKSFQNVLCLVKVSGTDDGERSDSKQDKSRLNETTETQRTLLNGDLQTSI
Sequence of Somatostatin receptor type 4 (P31391 whole entry): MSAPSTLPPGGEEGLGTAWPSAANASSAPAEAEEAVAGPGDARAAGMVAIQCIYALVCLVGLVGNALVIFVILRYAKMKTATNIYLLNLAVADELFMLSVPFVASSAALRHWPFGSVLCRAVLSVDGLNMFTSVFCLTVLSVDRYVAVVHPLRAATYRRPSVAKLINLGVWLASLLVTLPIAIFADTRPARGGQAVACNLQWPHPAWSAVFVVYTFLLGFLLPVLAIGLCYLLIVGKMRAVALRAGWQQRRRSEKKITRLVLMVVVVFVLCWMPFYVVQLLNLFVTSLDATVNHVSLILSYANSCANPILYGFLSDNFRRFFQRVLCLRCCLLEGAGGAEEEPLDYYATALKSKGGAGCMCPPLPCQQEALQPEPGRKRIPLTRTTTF

SMILES	pKi [1]	inhibition [1]	pKi [2]	inhibition [2]	pKi [3]	inhibition [3]	pKi [4]	inhibition [4]	pKi [5]	inhibition [5]	Ratio Ki [6]	Ratio Ki [7]
C[C@@H](O)CN1CCC(=O)N(Cc2ccccc2)CCC(=O)N(Cc2ccccc2)CCC(=O)N(CCc2c[nH]c3ccccc23)CC(=O)N(CCCCN)CCC1=O	4.80	Dose-dependent effect	4.57	Dose-dependent effect	5.62	Dose-dependent effect	5.14	Dose-dependent effect	5.68	Dose-dependent effect	–	–
C[C@@H](O)[C@H](CO)NC(=O)[C@@H]1CSSC[C@H](NC(=O)[C@H](N)Cc2ccccc2)C(=O)N[C@@H](Cc2ccccc2)C(=O)N[C@H](Cc2c[nH]c3ccccc23)C(=O)N[C@@H](CCCCN)C(=O)N[C@@H]([C@@H](C)O)C(=O)N1 (H-[dF]CF[dW]KTC-{Threoninol(2S,3R)}; disulfide 2-7)	–	Dose-dependent effect	–	Dose-dependent effect	–	Dose-dependent effect	–	Dose-dependent effect	–	–	–	–
C[C@@H](O)CN1CCC(=O)N(Cc2ccccc2)CCC(=O)N(CCc2c[nH]c3ccccc23)CC(=O)N(CCCCN)CCC1=O	3.82	Dose-dependent effect	3.75	Dose-dependent effect	4.77	Dose-dependent effect	4.70	Dose-dependent effect	5.02	Dose-dependent effect	–	–
C[C@@H](O)CN1CCC(=O)N(Cc2ccccc2)CCC(=O)N(CCc2c[nH]c3ccccc23)CCC(=O)N(CCCCN)CCC1=O	3.99	Dose-dependent effect	3.70	Dose-dependent effect	4.66	Dose-dependent effect	5.31	Dose-dependent effect	4.55	Dose-dependent effect	20	40
COC(=O)CCN(Cc1ccccc1)C(=O)CCN(C[C@@H](C)O)C(=O)CCN(CCCCN)C(=O)CN(CCc1c[nH]c2ccccc12)C(=O)CCN(Cc1ccccc1)C(C)=O	4.80	Dose-dependent effect	3.96	Dose-dependent effect	5.51	Dose-dependent effect	4.68	Dose-dependent effect	4.88	Dose-dependent effect	–	–
C[C@@H](O)CN1CCC(=O)N(Cc2ccccc2)CCC(=O)N(Cc2ccccc2)CCC(=O)N(CCc2c[nH]c3ccccc23)CCC(=O)N(CCCCN)CCC1=O	5.09	Dose-dependent effect	4.36	Dose-dependent effect	5.34	Dose-dependent effect	5.00	Dose-dependent effect	5.77	Dose-dependent effect	–	–
COC(=O)CCN(Cc1ccccc1)C(=O)CCN(C[C@@H](C)O)C(=O)CCN(CCCCN)C(=O)CCN(CCc1c[nH]c2ccccc12)C(=O)CCN(Cc1ccccc1)C(C)=O	4.92	Dose-dependent effect	4.26	Dose-dependent effect	5.57	Dose-dependent effect	4.92	Dose-dependent effect	4.96	Dose-dependent effect	–	–
